Results published in publication PMC10064330, “Reversible Dual-Covalent Molecular Locking of the 14-3-3/ERRγ Protein–Protein Interaction as a Molecular Glue Drug Discovery Approach” (Journal of the American Chemical Society, 2023).
Square brackets hold non-standard residues; d marks the D form. Peptide text beside a SMILES is read from it. pS = N[C@@H](COP(=O)(O)O)C(=O)O

Experiments:
[1] = biological target: T1, 14-3-3γ/ERRγ complex (Homo sapiens, UniProt P61981+P62508); experiment: Fluorescence anisotropy (FA): 14-3-3γ titration to fluorescein-ERRγ phosphopeptide with 100 μM compound; assay type: binding; settings: for stabilization factor SF100, Replicate 1 (Table S2) / stabilization factor SF100, Replicate 2 (Table S2) / stabilization factor SF100, Replicate 3 (Table S2) / stabilization factor SF100, Average (Table S2): KD DMSO control / apparent KD with 100 μM compound, 24 h; for stabilization factor SF100, Average (Table S2): average of three experiments
T1 construct: made in house; host or cells: E. coli NiCo21 (DE3)
Description: The stabilization of the ERRγ/14-3-3γ complex by the molecular locks was assessed using a fluorescence anisotropy (FA) assay where 14-3-3γ was titrated into a fluorescently labeled ERRγ phosphopeptide in the absence or presence of a 100 μM molecular lock (Figure 2a,b); this compound concentration was selected based on a FA compound titration assay (Figure S1).
Experimental Section Biophysical Assays
14-3-3γ protein expression (FA, TSA, MS assays)
A pPROEX HTb expression vector encoding the human 14-3-3 protein gamma (14-3-3γ) with a N-terminal his6-tag was transformed by heat shock into NiCo21 (DE3) competent cells. Single colonies were cultured in 50 mL LB medium (100 µg/mL ampicillin). After overnight incubation at 37 °C, cultures were transferred to 2 L TB media (100 µg/mL ampicillin, 1 mM MgCl2) and incubated at 37 °C until an OD600 nm of 0.8 -1.2 was reached. Protein expression was then induced with 0.4 mM isopropyl-β-d-thiogalactoside (IPTG), and cultures were incubated overnight at 18 °C. Cells were harvested by centrifugation (8600 rpm, 20 minu tes, 4 °C) and resuspended in lysis buffer (50 mM Hepes, pH 8.0, 300 mM NaCl, 12.5 mM imidazole, 5 mM MgCl2, 2 mM βME) containing cOmplete™ EDTA-free Protease Inhibitor Cocktail tablets (1 tablet/100 ml lysate) and benzonase ( 5 µl/100 ml). After lysis using a C3 Emulsiflex-C3 homogenizer (Avestin), the cell lysate was cleared by centrifugation (20000 rpm, 30 minutes, 4 °C) and purified using Ni2+-affinity chromatography (Ni -NTA superflow cartridges, Qiagen). Typically two 5 mL columns (flow 5 mL/min) were use d for a 2 L culture in which the lysate was loaded on the column , washed with 10 CV wash buffer (50 mM Hepes, pH 8.0, 300 mM NaCl, 25 mM imidazole, 2 mM βME), and eluted in several fractions (2-4 CV) of elution buffer (50 mM Hepes, pH 8.0, 300 mM NaCl, 250 mM imidazole, 2 mM βME). Fractions containing the 14 -3-3 protein were combined and dialyzed into 25 mM HEPES pH 8.0, 100 mM NaCl, 10 mM MgCl2, 500 µM TCEP. Finally, the protein was concentrated to ∼60 mg/mL, analyzed Q-Tof LC/MS, and aliquots were flash-frozen for storage at −80 °C.
14-3-3σΔc C38N protein expression (Crystallography)
A pPROEX HTb expression vector encoding the human 14-3-3 protein sigma truncated after T231 (14-3-3σΔc), mutated C38N, and containing a N-terminal his6-tag was transformed by heat shock into NiCo21 (DE3) competent cells. Single colonies were cultured in 50 mL LB medium (100 µg/mL ampicillin). After overnight incubation at 37 °C, cultures were transferred to 2 L TB media (100 µg/mL ampicillin, 1 mM MgCl2) and incubated at 37 °C until an OD600 nm of 0.8-1.2 was reached. Protein expression was then induced with 0.4 mM isopropyl-β-d-thiogalactoside (IPTG), and cultures were incubated overnight at 18 °C. Cells were harvested by centrifugation (8600 rpm, 20 minutes, 4 °C) and resuspended in lysis buffer (50 mM Hepes, pH 8.0, 300 mM NaCl, 12.5 mM imidazole, 5 mM MgCl2, 2 mM βME) containing cOmplete™ EDTA-free Protease Inhibitor Cocktail tablets (1 tablet/ 100 ml lysate) and benzonase (5 µl/ 100 ml). After lysis using a C3 Emulsiflex-C3 homogenizer (Avestin), […]
chromatography (Ni-NTA superflow cartridges, Qiagen). Typically two 5 mL columns were used for a 2 L culture in which the lysate was loaded on the column , washed with 10 CV wash buffer (50 mM Hepes, pH 8.0, 300 mM NaCl, 25 mM imidazole, 2 mM βME), and eluted with several fractions (2 -4 CV) of elution buffer (50 mM Hepes, pH 8.0, 300 mM NaCl, 250 mM imidazole, 2 mM βME). Fractions containing the 14-3-3 protein were combined and dialyzed into 25 mM HEPES pH 8.0, 200 mM NaCl, 10 mM MgCl 2, 2 mM βME. In addition, 1 mg TEV was added for each 100 mg purified protein to remove the purification tag. The cleaved sample was then again loaded on a 10 mL Ni-NTA column to separate the cleaved product from the expression tag and residual uncleaved protein. The flowthrough was loaded on a Superdex 75 pg 16/60 size exc lusion column (GE Life Sciences) using […]

[2] = biological target: T2, 14-3-3γ (Homo sapiens, UniProt P61981); experiment: FA binding of client phosphopeptides to 14-3-3γ (binary complex); settings: no stabilizer (DMSO); read-out: KD of binary 14-3-3γ/peptide complex
T2 construct: made in house; host or cells: E. coli NiCo21 (DE3)
T2 sequence (P61981 1-247): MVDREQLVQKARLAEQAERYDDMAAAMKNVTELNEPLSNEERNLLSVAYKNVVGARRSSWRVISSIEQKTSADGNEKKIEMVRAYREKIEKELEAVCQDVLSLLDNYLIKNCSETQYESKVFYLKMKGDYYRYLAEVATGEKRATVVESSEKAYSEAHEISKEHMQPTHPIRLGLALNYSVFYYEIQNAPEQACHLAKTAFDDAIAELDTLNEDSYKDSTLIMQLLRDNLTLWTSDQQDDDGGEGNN

SMILES	stabilization factor SF100, Replicate 1 (Table S2) [1]	stabilization factor SF100, Replicate 2 (Table S2) [1]	stabilization factor SF100, Replicate 3 (Table S2) [1]	stabilization factor SF100, Average (Table S2) [1]	Kd [2] [µM]	stabilization of 14-3-3γ/ERRγ complex (SF100, fold) ([1]; 100 μM compound, 24 h incubation)
CN(C)CCSSCCN(C)S(=O)(=O)c1ccc(C=O)cc1 [compound 7]	13.4	11.4	8.6	11.2	–	–
CN(C)CCSSCCN(C)C(=O)c1cccc(C=O)c1 [compound 8]	25.5	17.3	19.0	20.6	–	–
CN(C)CCSSCCN(C)C(=O)c1ccc(C=O)c(Br)c1 [compound 6]	22.3	14.3	16.9	17.8	–	–
CN(C)CCSSCCN(C)C(=O)c1ccc(C=O)cc1 [compound 4]	13.0	8.6	9.0	10.2	–	–
CC(=O)N[C@@H](CCCCN)C(=O)N[C@@H](CCCNC(=N)N)C(=O)N[C@@H](CCCNC(=N)N)C(=O)N[C@@H](CCCNC(=N)N)C(=O)N[C@@H](CCCCN)C(=O)N[C@@H](COP(=O)(O)O)C(=O)N[C@@H](CS)C(=O)N[C@@H](CCC(N)=O)C(=O)N[C@@H](C)C(N)=O [ERRγ] (Ac-KRRRK[pS]CQA-NH2; N-terminus and C-terminus assumed)	–	–	–	–	6.5 ± 0.9	–
CN(C)CCSSCCN(C)C(=O)c1ccc(F)c(C=O)c1 [compound 9]	8.5	5.4	7.9	7.3	–	least active
